Test results reported in patent US20240150360A1 (THE REGENTS OF THE UNIVERSITY OF MICHIGAN, priority 2021, published 2024).

Columns and labels:
CBP = target: T1, CBP (Homo sapiens, UniProt Q92793); assay: CBP degradation in 22Rv1 cells (5 h); assay type: cell-based; conditions: 22Rv1 cells, 5 h; for Dmax: 22Rv1, 5 h, read-out: CBP Degradation (22Rv1, 5 h) DCmax
T1 construct: endogenous in cells; host or cells: 22Rv1 (ATCC CRL-2505) human prostate cancer cells
Excerpt: (§1) Biological Assays. […] Cells with 3-8 passages after purchase were used in experiments.

P300 = target: T2, P300 (Homo sapiens, UniProt Q09472); assay: P300 degradation in 22Rv1 cells (5 h); assay type: cell-based; conditions: 22Rv1 cells, 5 h; for Dmax: read-out: P300 Degradation (22Rv1, 5 h) DCmax
T2 construct: endogenous in cells; host or cells: 22Rv1 (ATCC CRL-2505) human prostate cancer cells
Excerpt: as §1

22Rv1 cells = assay: Cell growth inhibition assay (CellTiter-Glo) in 22Rv1; assay type: cell-based, human; conditions: Homo sapiens, 22Rv1, 96 h, 22Rv1 cells, 96 h incubation; read-out: Cell Growth Inhibition (IC50) 22Rv1
Method in brief: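 22Rv1 prostate cancer cells (passages 3-8, DMEM with 10% FBS) were seeded at 4000 cells/well with compound, 3-fold dilutions from 10 μM final. After 96 h at 37° C and 5% CO2, growth was read by CellTiter-Glo 2.0 luminescence.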

HL60 = assay: Cell growth inhibition in HL60; assay type: cell-based; conditions: Homo sapiens, HL-60, HL60 cells; read-out: Cell Growth Inhibition (IC50) HL60

T1 sequence (Q92793 whole entry): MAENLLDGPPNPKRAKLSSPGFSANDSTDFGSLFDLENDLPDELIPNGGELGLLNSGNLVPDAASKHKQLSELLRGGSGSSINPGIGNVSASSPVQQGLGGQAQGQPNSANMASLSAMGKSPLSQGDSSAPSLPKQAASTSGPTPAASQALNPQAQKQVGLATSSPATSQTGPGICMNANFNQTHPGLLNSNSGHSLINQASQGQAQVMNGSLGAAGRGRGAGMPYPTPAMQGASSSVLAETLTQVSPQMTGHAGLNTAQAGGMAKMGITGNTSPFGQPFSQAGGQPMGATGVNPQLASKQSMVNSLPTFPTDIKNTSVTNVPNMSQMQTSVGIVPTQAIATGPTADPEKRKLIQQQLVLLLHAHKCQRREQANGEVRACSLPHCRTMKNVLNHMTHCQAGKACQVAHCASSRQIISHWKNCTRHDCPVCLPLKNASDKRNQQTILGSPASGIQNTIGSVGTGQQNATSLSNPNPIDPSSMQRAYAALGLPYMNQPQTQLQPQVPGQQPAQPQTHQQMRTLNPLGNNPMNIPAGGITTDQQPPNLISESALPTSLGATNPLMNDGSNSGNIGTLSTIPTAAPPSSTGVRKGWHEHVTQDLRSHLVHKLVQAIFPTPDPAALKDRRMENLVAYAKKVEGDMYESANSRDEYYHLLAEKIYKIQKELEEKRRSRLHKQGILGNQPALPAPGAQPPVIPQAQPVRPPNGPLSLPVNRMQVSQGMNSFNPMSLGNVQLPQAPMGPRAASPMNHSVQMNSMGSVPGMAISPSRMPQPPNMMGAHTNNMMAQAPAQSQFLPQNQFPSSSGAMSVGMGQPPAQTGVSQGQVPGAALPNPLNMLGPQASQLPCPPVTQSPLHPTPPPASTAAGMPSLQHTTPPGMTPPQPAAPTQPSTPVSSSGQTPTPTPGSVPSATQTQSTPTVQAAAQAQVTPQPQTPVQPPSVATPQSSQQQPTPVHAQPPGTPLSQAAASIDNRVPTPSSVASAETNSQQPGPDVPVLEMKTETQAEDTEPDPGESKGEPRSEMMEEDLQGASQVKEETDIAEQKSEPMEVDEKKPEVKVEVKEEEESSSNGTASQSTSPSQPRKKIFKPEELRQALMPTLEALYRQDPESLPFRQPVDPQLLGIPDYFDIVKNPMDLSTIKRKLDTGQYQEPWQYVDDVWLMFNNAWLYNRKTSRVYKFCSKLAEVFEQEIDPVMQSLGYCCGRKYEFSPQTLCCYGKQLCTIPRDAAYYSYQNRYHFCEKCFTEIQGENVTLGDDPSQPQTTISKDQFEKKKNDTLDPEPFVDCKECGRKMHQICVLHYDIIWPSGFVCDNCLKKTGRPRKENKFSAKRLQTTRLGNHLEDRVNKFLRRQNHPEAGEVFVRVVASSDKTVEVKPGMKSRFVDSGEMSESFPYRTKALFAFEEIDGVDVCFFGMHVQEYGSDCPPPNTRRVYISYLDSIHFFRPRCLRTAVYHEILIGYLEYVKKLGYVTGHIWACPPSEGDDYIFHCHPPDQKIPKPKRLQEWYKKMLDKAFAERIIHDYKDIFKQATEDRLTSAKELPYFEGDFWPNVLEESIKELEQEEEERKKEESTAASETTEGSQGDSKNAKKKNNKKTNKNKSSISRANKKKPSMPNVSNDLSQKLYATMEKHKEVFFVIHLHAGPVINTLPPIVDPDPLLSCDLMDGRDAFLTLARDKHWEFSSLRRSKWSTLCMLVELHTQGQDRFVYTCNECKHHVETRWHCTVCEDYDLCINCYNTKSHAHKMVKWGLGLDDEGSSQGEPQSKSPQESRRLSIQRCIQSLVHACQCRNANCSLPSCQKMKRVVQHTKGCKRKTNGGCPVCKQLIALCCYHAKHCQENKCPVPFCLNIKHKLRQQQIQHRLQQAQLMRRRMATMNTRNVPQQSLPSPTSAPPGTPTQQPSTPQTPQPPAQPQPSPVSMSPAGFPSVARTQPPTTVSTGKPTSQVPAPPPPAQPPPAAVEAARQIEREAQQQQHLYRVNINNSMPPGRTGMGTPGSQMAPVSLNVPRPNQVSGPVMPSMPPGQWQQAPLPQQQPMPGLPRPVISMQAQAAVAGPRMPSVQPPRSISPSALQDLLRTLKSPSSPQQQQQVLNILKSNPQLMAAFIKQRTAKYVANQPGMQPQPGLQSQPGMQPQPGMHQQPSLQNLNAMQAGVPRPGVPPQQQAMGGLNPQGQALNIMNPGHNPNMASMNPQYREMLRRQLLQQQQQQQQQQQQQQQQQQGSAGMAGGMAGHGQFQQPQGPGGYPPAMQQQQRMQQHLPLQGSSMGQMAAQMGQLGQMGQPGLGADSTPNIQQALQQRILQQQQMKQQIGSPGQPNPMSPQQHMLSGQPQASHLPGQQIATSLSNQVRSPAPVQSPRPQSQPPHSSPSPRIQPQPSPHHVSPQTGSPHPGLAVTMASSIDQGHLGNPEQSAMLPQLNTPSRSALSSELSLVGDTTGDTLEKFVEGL
T2 sequence (Q09472 whole entry): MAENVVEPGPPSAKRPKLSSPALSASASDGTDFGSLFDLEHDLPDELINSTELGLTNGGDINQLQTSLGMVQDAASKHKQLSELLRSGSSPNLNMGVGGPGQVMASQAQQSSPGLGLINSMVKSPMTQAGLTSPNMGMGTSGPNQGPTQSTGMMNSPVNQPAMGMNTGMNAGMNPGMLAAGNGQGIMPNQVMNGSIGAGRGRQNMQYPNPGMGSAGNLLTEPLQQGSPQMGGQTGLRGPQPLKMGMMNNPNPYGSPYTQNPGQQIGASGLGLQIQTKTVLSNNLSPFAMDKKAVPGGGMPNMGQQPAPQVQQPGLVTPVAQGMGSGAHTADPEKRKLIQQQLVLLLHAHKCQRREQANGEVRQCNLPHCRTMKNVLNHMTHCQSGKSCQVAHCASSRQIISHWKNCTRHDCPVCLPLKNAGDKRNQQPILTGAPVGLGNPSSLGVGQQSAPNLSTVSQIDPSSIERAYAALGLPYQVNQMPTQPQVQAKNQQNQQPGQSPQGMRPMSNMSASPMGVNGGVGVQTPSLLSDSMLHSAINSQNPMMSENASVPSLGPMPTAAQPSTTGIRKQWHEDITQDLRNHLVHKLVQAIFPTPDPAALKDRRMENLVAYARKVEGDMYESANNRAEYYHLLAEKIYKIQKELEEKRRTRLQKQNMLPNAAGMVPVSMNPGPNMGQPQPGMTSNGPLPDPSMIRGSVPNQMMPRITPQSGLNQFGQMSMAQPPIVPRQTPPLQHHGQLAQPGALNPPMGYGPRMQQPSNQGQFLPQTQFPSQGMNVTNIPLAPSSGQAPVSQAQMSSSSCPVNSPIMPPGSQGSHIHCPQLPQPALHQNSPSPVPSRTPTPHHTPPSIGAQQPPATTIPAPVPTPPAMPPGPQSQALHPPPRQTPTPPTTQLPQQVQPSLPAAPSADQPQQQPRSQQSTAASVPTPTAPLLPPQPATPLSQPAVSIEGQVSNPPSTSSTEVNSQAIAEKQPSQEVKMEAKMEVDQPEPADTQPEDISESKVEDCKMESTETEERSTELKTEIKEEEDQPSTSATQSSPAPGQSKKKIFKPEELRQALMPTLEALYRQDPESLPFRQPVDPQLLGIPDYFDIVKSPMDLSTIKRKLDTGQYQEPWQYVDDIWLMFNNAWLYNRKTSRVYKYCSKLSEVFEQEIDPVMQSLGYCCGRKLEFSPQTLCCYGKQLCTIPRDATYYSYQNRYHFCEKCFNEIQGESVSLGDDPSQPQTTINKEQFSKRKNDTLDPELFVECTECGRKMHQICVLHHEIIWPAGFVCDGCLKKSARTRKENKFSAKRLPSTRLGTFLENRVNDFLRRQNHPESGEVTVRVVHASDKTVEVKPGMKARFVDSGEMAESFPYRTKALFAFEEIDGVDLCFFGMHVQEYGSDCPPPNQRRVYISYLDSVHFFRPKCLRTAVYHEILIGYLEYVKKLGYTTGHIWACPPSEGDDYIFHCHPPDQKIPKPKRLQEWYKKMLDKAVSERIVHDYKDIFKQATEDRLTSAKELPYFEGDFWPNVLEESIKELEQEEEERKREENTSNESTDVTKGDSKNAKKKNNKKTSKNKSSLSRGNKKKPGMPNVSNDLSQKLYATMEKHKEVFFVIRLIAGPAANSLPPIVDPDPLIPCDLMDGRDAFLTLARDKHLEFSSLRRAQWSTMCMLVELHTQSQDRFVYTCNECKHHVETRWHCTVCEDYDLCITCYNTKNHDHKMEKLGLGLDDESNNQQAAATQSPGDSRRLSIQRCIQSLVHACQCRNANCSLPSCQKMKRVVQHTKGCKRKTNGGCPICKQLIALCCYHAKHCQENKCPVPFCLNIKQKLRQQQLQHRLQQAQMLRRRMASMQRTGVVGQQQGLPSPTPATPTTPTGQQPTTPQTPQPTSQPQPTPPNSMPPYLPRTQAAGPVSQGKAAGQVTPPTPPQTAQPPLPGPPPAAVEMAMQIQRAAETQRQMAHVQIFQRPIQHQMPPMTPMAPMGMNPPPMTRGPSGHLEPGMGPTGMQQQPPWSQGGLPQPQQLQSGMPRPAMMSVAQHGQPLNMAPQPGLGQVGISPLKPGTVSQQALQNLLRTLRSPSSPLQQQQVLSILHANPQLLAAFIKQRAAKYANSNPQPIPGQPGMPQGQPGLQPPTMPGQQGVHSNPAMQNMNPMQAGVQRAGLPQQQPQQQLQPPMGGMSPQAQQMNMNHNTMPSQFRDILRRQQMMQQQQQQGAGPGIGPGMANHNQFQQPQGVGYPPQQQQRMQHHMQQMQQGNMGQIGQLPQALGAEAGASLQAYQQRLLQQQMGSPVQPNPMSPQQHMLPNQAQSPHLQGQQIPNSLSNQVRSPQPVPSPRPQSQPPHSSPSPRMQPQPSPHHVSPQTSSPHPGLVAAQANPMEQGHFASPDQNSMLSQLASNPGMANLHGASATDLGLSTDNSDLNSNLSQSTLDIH

Compound | Dmax (CBP) | DC50 (CBP) | DC50 (P300) | Dmax (P300) | IC50 (22Rv1 cells) | IC50 (HL60)
Cn1cc(-c2cc3c(cc2C(F)F)N(c2nn(C4CCN(C(=O)CN5Cc6cc7c(cc6C5)C(=O)N(C5CCC(=O)NC5=O)C7=O)CC4)c4c2CNCC4)CCC3)cn1 (stereo not drawn) [CP-057, 6-(2-(4-(3-(7-(difluoromethyl)-6-(1-methyl-1H-pyrazol-4-yl)-3,4-dihydroquinolin-1(2H)-yl)-4,5,6,7-tetrahydro-1H-pyrazolo[4,3-c]pyridin-1-yl)piperidin-1-yl)-2-oxoethyl)-2-(2,6-dioxopiperidin-3-yl)-6,7-dihydropyrrolo[3,4-f]isoindole-1,3(2H,5H)-dione] | < 50% | > 1000 nM | > 1000 nM | < 50% | > 10000 nM | > 10000 nM
CC(=O)N1CCc2c(c(N3CCCc4cc(-c5cnn(C)c5)c(C(F)F)cc43)nn2C2CCC(C(C)CN3Cc4cc5c(cc4C3)C(=O)N(C3CCC(=O)NC3=O)C5=O)CC2)C1 (stereo not drawn) [CP-051, 6-(2-(4-(5-acetyl-3-(7-(difluoromethyl)-6-(1-methyl-1H-pyrazol-4-yl)-3,4-dihydroquinolin-1(2H)-yl)-4,5,6,7-tetrahydro-1H-pyrazolo[4,3-c]pyridin-1-yl)cyclohexyl)propyl)-2-(2,6-dioxopiperidin-3-yl)-6,7-dihydropyrrolo[3,4-f]isoindole-1,3(2H,5H)-dione] | > 90% | < 10 nM | < 10 nM | > 90% | < 100 nM | < 100 nM
CC(=O)N1CCc2c(c(N3CCCc4cc5c(cc43)CCCC5)nn2C2CCN(C(=O)CN3CCc4cc5c(cc4C3)C(=O)N(C3CCC(=O)NC3=O)C5=O)CC2)C1 (stereo not drawn) [CP-078, 6-(2-(4-(5-acetyl-3-(3,4,6,7,8,9-hexahydrobenzo[g]quinolin-1(2H)-yl)-4,5,6,7-tetrahydro-1H-pyrazolo[4,3-c]pyridin-1-yl)piperidin-1-yl)-2-oxoethyl)-2-(2,6-dioxopiperidin-3-yl)-5,6,7,8-tetrahydro-1H-pyrrolo[3,4-g]isoquinoline-1,3(2H)-dione] | > 90% | < 10 nM | < 10 nM | > 70% | < 1000 nM | < 1000 nM
CC(=O)N1CCc2c(c(-c3cccc4ccccc34)nn2C2CCN(C(=O)CN3Cc4cc5c(cc4C3)C(=O)N(C3CCC(=O)NC3=O)C5=O)CC2)C1 (stereo not drawn) [CP-075, 6-(2-(4-(5-acetyl-3-(naphthalen-1-yl)-4,5,6,7-tetrahydro-1H-pyrazolo[4,3-c]pyridin-1-yl)piperidin-1-yl)-2-oxoethyl)-2-(2,6-dioxopiperidin-3-yl)-6,7-dihydropyrrolo[3,4-f]isoindole-1,3(2H,5H)-dione] | > 90% | < 10 nM | < 10 nM | > 90% | < 1000 nM | < 1000 nM
Cc1noc(C)c1-c1ccc2c(c1)nc([C@@H]1CCCC(=O)N1c1ccc(F)c(F)c1)n2C1CCN(C(=O)CCN2Cc3cc4c(cc3C2)C(=O)N(C2CCC(=O)NC2=O)C4=O)CC1 (stereo partly drawn) [CP-065, 6-(3-(4-(2-((S)-1-(3,4-difluorophenyl)-6-oxopiperidin-2-yl)-5-(3,5-dimethylisoxazol-4-yl)-1H-benzo[d]imidazol-1-yl)piperidin-1-yl)-3-oxopropyl)-2-(2,6-dioxopiperidin-3-yl)-6,7-dihydropyrrolo[3,4-f]isoindole-1,3(2H,5H)-dione] | < 50% | > 1000 nM | > 1000 nM | < 50% | > 10000 nM | > 10000 nM
CC(=O)c1cc2c(cc1C(F)F)N(c1nn(C3CCN(C(=O)CN4Cc5cc6c(cc5C4)C(=O)N(C4CCC(=O)NC4=O)C6=O)CC3)c3c1CN(C(C)=O)CC3)CCC2 (stereo not drawn) [CP-019, 6-(2-(4-(5-acetyl-3-(6-acetyl-7-(difluoromethyl)-3,4-dihydroquinolin-1(2H)-yl)-4,5,6,7-tetrahydro-1H-pyrazolo[4,3-c]pyridin-1-yl)piperidin-1-yl)-2-oxoethyl)-2-(2,6-dioxopiperidin-3-yl)-6,7-dihydropyrrolo[3,4-f]isoindole-1,3(2H,5H)-dione] | < 50% | > 1000 nM | > 1000 nM | < 50% | > 10000 nM | < 1000 nM
CC(=O)N1CCc2c(c(N3CCCc4cc(C5CC5)c(C(F)F)cc43)nn2C2CCN(C(=O)CN3CCc4cc5c(cc4C3)C(=O)N(C3CCC(=O)NC3=O)C5=O)CC2)C1 (stereo not drawn) [CP-014, 6-(2-(4-(5-acetyl-3-(6-cyclopropyl-7-(difluoromethyl)-3,4-dihydroquinolin-1(2H)-yl)-4,5,6,7-tetrahydro-1H-pyrazolo[4,3-c]pyridin-1-yl)piperidin-1-yl)-2-oxoethyl)-2-(2,6-dioxopiperidin-3-yl)-5,6,7,8-tetrahydro-1H-pyrrolo[3,4-g]isoquinoline-1,3(2H)-dione] | > 90% | < 10 nM | < 10 nM | > 70% | < 1000 nM | < 1000 nM
CC(=O)N1CCc2c(c(N3CCCc4cc(Cl)c(C(F)F)cc43)nn2C2CCN(C(=O)CN3CCc4cc5c(cc4C3)C(=O)N(C3CCC(=O)NC3=O)C5=O)CC2)C1 (stereo not drawn) [CP-018, 6-(2-(4-(5-acetyl-3-(6-chloro-7-(difluoromethyl)-3,4-dihydroquinolin-1(2H)-yl)-4,5,6,7-tetrahydro-1H-pyrazolo[4,3-c]pyridin-1-yl)piperidin-1-yl)-2-oxoethyl)-2-(2,6-dioxopiperidin-3-yl)-5,6,7,8-tetrahydro-1H-pyrrolo[3,4-g]isoquinoline-1,3(2H)-dione] | < 50% | < 1000 nM | > 1000 nM | < 50% | > 10000 nM | > 10000 nM
CC(=O)N1CCc2c(c(N3CCCc4cc(-c5cnn(C)c5)c(C(F)F)cc43)nn2[C@H]2CC[C@@H](CN3CCc4cc5c(cc4C3)C(=O)N(C3CCC(=O)NC3=O)C5=O)CC2)C1 (relative stereo) [CP-050, 6-((4-(5-acetyl-3-(7-(difluoromethyl)-6-(1-methyl-1H-pyrazol-4-yl)-3,4-dihydroquinolin-1(2H)-yl)-4,5,6,7-tetrahydro-1H-pyrazolo[4,3-c]pyridin-1-yl)cyclohexyl)methyl)-2-(2,6-dioxopiperidin-3-yl)-5,6,7,8-tetrahydro-1H-pyrrolo[3,4-g]isoquinoline-1,3(2H)-dione] | > 90% | < 10 nM | < 10 nM | > 90% | < 100 nM | < 100 nM
CC(=O)N1CCc2c(c(N3CCCc4cc(-c5cnn(C)c5)c(C(F)F)cc43)nn2C2CCC(CCN3CCc4cc5c(cc4C3)C(=O)N(C3CCC(=O)NC3=O)C5=O)CC2)C1 (stereo not drawn) [CP-045, 6-(2-(4-(5-acetyl-3-(7-(difluoromethyl)-6-(1-methyl-1H-pyrazol-4-yl)-3,4-dihydroquinolin-1(2H)-yl)-4,5,6,7-tetrahydro-1H-pyrazolo[4,3-c]pyridin-1-yl)cyclohexyl)ethyl)-2-(2,6-dioxopiperidin-3-yl)-5,6,7,8-tetrahydro-1H-pyrrolo[3,4-g]isoquinoline-1,3(2H)-dione] | > 90% | < 10 nM | < 10 nM | > 70% | < 100 nM | < 100 nM
CC(=O)N1CCc2c(c(N3CCCc4cc5c(cc43)C(C)CCC5)nn2C2CCN(C(=O)CN3Cc4cc5c(cc4C3)C(=O)N(C3CCC(=O)NC3=O)C5=O)CC2)C1 (stereo not drawn) [CP-079, 6-(2-(4-(5-acetyl-3-(9-methyl-3,4,6,7,8,9-hexahydrobenzo[g]quinolin-1(2H)-yl)-4,5,6,7-tetrahydro-1H-pyrazolo[4,3-c]pyridin-1-yl)piperidin-1-yl)-2-oxoethyl)-2-(2,6-dioxopiperidin-3-yl)-6,7-dihydropyrrolo[3,4-f]isoindole-1,3(2H,5H)-dione] | > 90% | < 100 nM | < 100 nM | > 70% | < 1000 nM | < 100 nM
CC(=O)N1CCc2c(c(N3CCCc4cc(C(C)C)c(C(F)F)cc43)nn2C2CCN(C(=O)CN3Cc4cc5c(cc4C3)C(=O)N(C3CCC(=O)NC3=O)C5=O)CC2)C1 (stereo not drawn) [CP-015, 6-(2-(4-(5-acetyl-3-(7-(difluoromethyl)-6-isopropyl-3,4-dihydroquinolin-1(2H)-yl)-4,5,6,7-tetrahydro-1H-pyrazolo[4,3-c]pyridin-1-yl)piperidin-1-yl)-2-oxoethyl)-2-(2,6-dioxopiperidin-3-yl)-6,7-dihydropyrrolo[3,4-f]isoindole-1,3(2H,5H)-dione] | > 90% | < 10 nM | < 10 nM | > 70% | < 1000 nM | < 100 nM
CC(=O)N1CCc2cc3c(cc2C1)CCCN3c1nn(C2CCN(C(=O)CN3Cc4cc5c(cc4C3)C(=O)N(C3CCC(=O)NC3=O)C5=O)CC2)c2c1CN(C(C)=O)CC2 (stereo not drawn) [CP-080, 6-(2-(4-(5-acetyl-3-(7-acetyl-3,4,6,7,8,9-hexahydropyrido[3,4-g]quinolin-1(2H)-yl)-4,5,6,7-tetrahydro-1H-pyrazolo[4,3-c]pyridin-1-yl)piperidin-1-yl)-2-oxoethyl)-2-(2,6-dioxopiperidin-3-yl)-6,7-dihydropyrrolo[3,4-f]isoindole-1,3(2H,5H)-dione] | > 70% | < 10 nM | < 10 nM | > 70% | > 10000 nM | > 10000 nM
